Data reported in patent US20150276714A1, “METHOD OF IDENTIFYING OR EVALUATING BENEFICIAL ACTIVES AND COMPOSITIONS CONTAINING THE SAME” (The Procter & Gamble Company, priority 2012, published 2015).

Columns and labels:
[1] = test system: human dermal fibroblasts (BJ cell line); experiment: Extracellular acidification rate (glycolysis), XF Extracellular Flux Analyzer; assay type: cell-based
Excerpt: This method enables the non-lethal, simultaneous detection of metabolic indicators associated with the oxidative phosphorylation and glycolysis metabolic pathways in a controlled environment. The method also enables the collection of kinetic data. When assessing the metabolic response to a stressor or test agent, it is important to assess both metabolic pathways simultaneously to understand how the two metabolic pathways interact with the stressor or test agent and/or to one another. Additionally, it is important to monitor the metabolic pathways in real time (i.e., repeating periodic measurements) to observe trends and/or transient responses that may be missed when using methods that provide only static data. Thus, destructive tests are not suitable for use herein since they typically only allow for a single measurement. With regard to the fibroblasts discussed above in FIGS. 5A, 5B, 5C, 5D, 5E, 6, 7A, 7B, 7C, 7D, 7E and 8, frozen human dermal fibroblasts were obtained from the BJ cell line commercially available from ATCC, Bethesda, Md. The fibroblasts were grown to 70-80% confluence in a culture medium of Eagle's Minimum Essential Medium (“EMEM”) supplemented with 10% fetal bovine serum (“FBS”) and gentamicin/amphotericin B ×500 solution (EMEM and FBS are available from ATCC, and gentamicin/amphotericin B ×500 solution is available from Invitrogen). The fibroblasts were plated at 1×10^5 cells per well in Gelatin-coated plates 24 hours prior to testing. Each well included 100 μL of the fibroblast medium described above. A test medium was made from Dulbecco's Modified Eagle Medium (available from Seahorse Bioscience), 25 mM glucose and 1 mM pyruvate. The test medium was warmed to 37° C. and the pH adjusted to 7.4. The cells were grown and plated at 37° C. and 5% CO2 air. The fibroblast medium in the wells was replaced by the test medium 1 hour prior to taking measurements. Oxygen consumption rate and extracellular acidification rate may be detected using an XF Extracellular Flux Analyzer or equivalent. […]

[2] = test system: human dermal fibroblasts (BJ cell line); experiment: Oxygen consumption rate (oxidative phosphorylation), XF Extracellular Flux Analyzer; assay type: cell-based
Excerpt: This method enables the non-lethal, simultaneous detection of metabolic indicators associated with the oxidative phosphorylation and glycolysis metabolic pathways in a controlled environment. The method also enables the collection of kinetic data. When assessing the metabolic response to a stressor or test agent, it is important to assess both metabolic pathways simultaneously to understand how the two metabolic pathways interact with the stressor or test agent and/or to one another. Additionally, it is important to monitor the metabolic pathways in real time (i.e., repeating periodic measurements) to observe trends and/or transient responses that may be missed when using methods that provide only static data. Thus, destructive tests are not suitable for use herein since they typically only allow for a single measurement. With regard to the fibroblasts discussed above in FIGS. 5A, 5B, 5C, 5D, 5E, 6, 7A, 7B, 7C, 7D, 7E and 8, frozen human dermal fibroblasts were obtained from the BJ cell line commercially available from ATCC, Bethesda, Md. […] Oxygen consumption rate and extracellular acidification rate may be detected using an XF Extracellular Flux Analyzer or equivalent. […]

With `NC(=O)c1cccnc1` [niacinamide] the “effect on hydrogen peroxide-induced decrease in glycolysis metabolism” value ([1]; plate 1, 0.1 mM and […] niacinamide in combination with […] hydrogen peroxide) was “lessen the detrimental effect of the hydrogen peroxide on glycolysis metabolism”, the “effect on hydrogen peroxide-induced decrease in extracellular acidification rate” value ([1]; plate 2, 0.5 mM and 1.0 mM niacinamide in combination with […] hydrogen peroxide) was “prevent the acidification rate from decreasing below the basal value” and the “effect on fibroblast glycolysis” value ([1]; plate 2, 1.0 mM niacinamide by itself) was “substantially no effect on fibroblast glycolysis”. The “effect on oxphos metabolism” value ([2]; 1.0 mM niacinamide by itself) was “no significant affect on the oxphos metabolism” and the “effect on OCR in presence of hydrogen peroxide” value ([2]; niacinamide 1.0 mM in combination with […] hydrogen peroxide) was “lessen the initial decrease in OCR somewhat”.
